Results published in publication PMC6358866 (International Journal of Molecular Sciences, 2019).

What was measured:
[1] = test system: Enterococcus faecalis ATCC 29212 biofilm; assay: Activity against biofilms formed on polystyrene 96-well plates, 24 h exposure, resazurin; assay type: cell-based; details: polystyrene plate, 24 h exposure in MHB II; for MBEC 50: lowest concentration reducing metabolic activity by at least 50 ± 5%
Procedure: (§1) Bacterial strains were obtained from the Polish Collection of Microorganisms (Polish Academy of Science, Wroclaw, Poland). […] The bacteria were cultured in a Mueller Hinton Broth II (MHB, Biocorp, Warsaw, Poland) overnight, under aerobic conditions at 37 °C. After incubation, the liquid cultures were centrifuged (2500 rpm for 10 min) and washed with phosphoric buffer (PBS, AppliChem, Darmstadt, Germany) three times and resuspended in fresh MHB II for inoculums appropriate for the performed assays.
(§2) Bacterial suspensions were added to 96-well plates (Kartell, Noviglio, Italy) at initial inoculums of ca. 5 × 10^8 CFU/mL and incubated under aerobic conditions with shaking (120 rpm) at 37 °C for 24 h. […] After exposure, the wells were washed three times with PBS and a solution of resazurin (Sigma Aldrich, St. Louis, MO, USA) in MHB II (0.01%) was added. This cell viability reagent is metabolized by bacterial dehydrogenases upon contact with living cells. As a result, the blue dye is reduced to a pink resorufin. After 1.5 h of incubation, the absorbance was measured at 570 and 600 nm using a microplate reader (Thermo Fisher Scientific, Waltham, MA, USA). […] The metabolic activity of bacteria in the samples was measured according to the following formula:
(§3) Metabolic activity (%) = (ΔAbs of sample − ΔAbs of negative control)/(ΔAbs of positive control − ΔAbs of negative control);
(§4) ΔAbs = absorbance at 570 nm − absorbance at 600 nm;
(§5) The presented results are the means of nine results obtained on three different days.

[2] = test system: Escherichia coli ATCC 25922 biofilm; assay: as above; assay type: cell-based; details: polystyrene plate, 24 h exposure in MHB II; for MBEC 50: lowest concentration reducing metabolic activity by at least 50 ± 5%
Procedure: as §1, §2, §3, §4, §5

[3] = test system: Pseudomonas aeruginosa ATCC 9027 biofilm; assay: as above; assay type: cell-based; details: for MBEC 50: lowest concentration reducing metabolic activity by at least 50 ± 5%; for MBEC 50 / MBEC 90: polystyrene plate, 24 h exposure in MHB II, resazurin; for MBEC 90: lowest concentration reducing metabolic activity by at least 90 ± 5%, mean of nine results
Procedure: as §1, §2, §3, §4, §5

[4] = test system: Staphylococcus epidermidis ATCC 14990 biofilm; assay: as above; assay type: cell-based; details: for MBEC 50: lowest concentration reducing metabolic activity by at least 50 ± 5%; for MBEC 50 / MBEC 90: polystyrene plate, 24 h exposure in MHB II, resazurin; for MBEC 90: lowest concentration reducing metabolic activity by at least 90 ± 5%, mean of nine results
Procedure: as §1, §2, §3, §4, §5

[5] = test system: Staphylococus aureus ATCC 6538 biofilm; assay: as above; assay type: cell-based, Staphylococcus aureus; details: polystyrene plate, 24 h exposure in MHB II, resazurin; for MBEC 50: lowest concentration reducing metabolic activity by at least 50 ± 5%; for MBEC 90: lowest concentration reducing metabolic activity by at least 90 ± 5%, mean of nine results
Procedure: as §1, §2, §3, §4, §5

[6] = test system: Staphylococus aureus ATCC 6538 biofilm; assay: Activity against biofilms on 96-well plates after withdrawal of the antimicrobial (additional 24 h in MHB II); assay type: cell-based, Staphylococcus aureus; details: after withdrawal and additional 24 h in MHB II; for MBEC II 50: lowest concentration giving permanent reduction of metabolic activity by at least 50 ± 5%; for MBEC II 90: lowest concentration giving permanent reduction of metabolic activity by at least 90 ± 5%
Procedure: (§6) Bacterial strains were obtained from the Polish Collection of Microorganisms (Polish Academy of Science, Wroclaw, Poland). Three Gram-positive and two Gram-negative strains linked with CL-related infections were chosen for the study (Staphylococus aureus ATCC 6538, Staphylococcus epidermidis ATCC 14990, Pseudomonas aeruginosa ATCC 9027, Escherichia coli ATCC 25922, and Enterococcus faecalis ATCC 29212). The bacteria were cultured in a Mueller Hinton Broth II (MHB, Biocorp, Warsaw, Poland) overnight, under aerobic conditions at 37 °C. […] Bacterial suspensions were added to 96-well plates (Kartell, Noviglio, Italy) at initial inoculums of ca. 5 × 10^8 CFU/mL and incubated under aerobic conditions with shaking (120 rpm) at 37 °C for 24 h. […] After exposure, the wells were washed three times with PBS and a solution of resazurin (Sigma Aldrich, St. […] This cell viability reagent is metabolized by bacterial dehydrogenases upon contact with living cells. As a result, the blue dye is reduced to a pink resorufin. After 1.5 h of incubation, the absorbance was measured at 570 and 600 nm using a microplate reader (Thermo Fisher Scientific, Waltham, MA, USA). […] The procedure was conducted as described in Section 4.3, with the difference that after exposure to antimicrobials, the wells were washed three times with PBS and pure MHB II was added. The samples were incubated for another 24 h (aerobic conditions, 120 rpm shaking, 37 °C). […] The absorbance was measured at the same wave lengths and metabolic activity was calculated according to the formula given in Section 4.3. The presented results are means of nine results obtained on three different days.

[7] = test system: Enterococcus faecalis ATCC 29212 biofilm; assay: as above; assay type: cell-based; details: after withdrawal and additional 24 h in MHB II
Procedure: as §6

[8] = test system: Escherichia coli ATCC 25922 biofilm; assay: as above; assay type: cell-based; details: after withdrawal and additional 24 h in MHB II
Procedure: as §6

[9] = test system: Pseudomonas aeruginosa ATCC 9027 biofilm; assay: as above; assay type: cell-based; details: for effect of pretreatment on biofilm after withdrawal: PA biofilm on polystyrene, concentrations lower than 32 mg/L, after withdrawal and additional 24 h
Procedure: as §6

[10] = test system: Staphylococcus epidermidis ATCC 14990 biofilm; assay: as above; assay type: cell-based; details: after withdrawal and additional 24 h in MHB II; for MBEC II 50: lowest concentration giving permanent reduction of metabolic activity by at least 50 ± 5%; for MBEC II 90: lowest concentration giving permanent reduction of metabolic activity by at least 90 ± 5%
Procedure: as §6

[11] = test system: human cells (keratinocytes, erythrocytes); details: cited from earlier work
Source text: PA was also the most difficult strain to eliminate from the surface of CL in the previous study, in which we investigated amphibian peptides and short lipopeptides containing hexadecanoic acid according to their potential application as CL solution additives. The results of performed antimicrobial assays were also very promising. However, due to high toxicity towards human keratinocytes in vitro, the ocular applications of lipopeptides with hexadecanoic acid are not worth further consideration. In contrast to those lipopeptides, the compound with two residues of decanoic aci ... || The excellent antimicrobial activity was previously reported for many lipopeptides. This, along with the relatively low production costs, has encouraged many research groups to study their antimicrobial activities and design molecules with optimal properties. C16-KK-NH2 is one of such extensively studied compounds. […] Other derivatives ...

[12] = lowest concentration reducing metabolic activity by at least 90 ± 5%, mean of nine results
[13] = lowest concentration giving permanent reduction of metabolic activity by at least 50 ± 5%
[14] = lowest concentration giving permanent reduction of metabolic activity by at least 90 ± 5%

Compound	MBEC 50 [1] [mg/L]	MBEC 50 [2] [mg/L]	MBEC 50 [3] [mg/L]	MBEC 90 [3] [mg/L]	MBEC 50 [4] [mg/L]	MBEC 90 [4] [mg/L]	MBEC 50 [5] [mg/L]	MBEC 90 [5] [mg/L]	MBEC II 50 [6] [µg/mL]	MBEC II 90 [6] [µg/mL]	effect of pretreatment on biofilm after withdrawal [9]	MBEC II 50 [10] [µg/mL]	MBEC II 90 [10] [µg/mL]	also measured
O=C(N[C@H](CO)[C@H](O)c1ccc([N+](=O)[O-])cc1)C(Cl)Cl [Chloramphenicol]	32	8	4	128	32	256	128	>256	>256	>256	significant promotion of biofilm growth	>256	>256	MBEC 90 [1, 12]: >256 mg/L; MBEC 90 [2, 12]: 16 mg/L; reduction of metabolic activities ([3]; PA biofilm on polystyrene, 24 h exposure, 32–64 mg/L): ~70%; metabolic activity of bacteria ([4]; SE biofilm on polystyrene, 24 h exposure, 64 mg/L): ~25%; MBEC II 50 [7, 13]: >256 µg/mL; MBEC II 90 [7, 14]: >256 µg/mL; MBEC II 50 [8, 13]: >256 µg/mL; MBEC II 90 [8, 14]: >256 µg/mL; MBEC II 50 ([9]; lowest concentration giving permanent reduction of metabolic activity by at least 50 ± 5%, after withdrawal and additional 24 h in MHB II): 256 µg/mL; MBEC II 90 ([9]; lowest concentration giving permanent reduction of metabolic activity by at least 90 ± 5%, after withdrawal and additional 24 h in MHB II): >256 µg/mL
C16-KK-NH2	–	–	–	–	–	–	–	–	–	–	–	–	–	toxicity towards human cells [11]: high toxicity
neomycin (sulfate)	64	8	8	64	≤1	16	4	64	64	64	enhanced metabolism of bacteria in comparison to the positive control	8	16	reduction of metabolic activity ([3]; PA biofilm on polystyrene, 24 h exposure, 32 mg/L): 75%; concentration giving a permanent antibiofilm effect ([10]; SE biofilm on polystyrene): 16 mg/L
